The source of these data is paper PMC4816952, “[^18F]FE@SNAP—a specific PET tracer for melanin-concentrating hormone receptor 1 imaging?” (EJNMMI Research, 2016).

Marks after values point to notes of the source that are not given here.

A short description of series [1]: Biodistribution 45 min after IV injection. It is filed as in vivo, Sprague-Dawley rats. The conditions noted are these: rats, 45 min after injection. How it is done:
(§1) Conscious and freely moving rats of the baseline and blocking groups were always examined simultaneously: rats of the baseline group (n = 3) received vehicle (400 μL), and rats of the blocking group (n = 3) received SNAP-7941 (15 mg/kg; freshly dissolved in 400 μL) via the jugular vein 30 min prior to tracer application. Via the jugular vein, 51.33 ± 26.2 MBq of [^18F]FE@SNAP (specific activity 12.3–43.1 GBq/μmol; radiochemical purity ≥95 %; 30–100 μL) was then administered to all rats. After 45 min, rats were sacrificed by IV ketamine injection and decapitated, and the brains were removed and immediately quick frozen in isopentane (−45 °C) for ex vivo autoradiography. Other organs including the eyes, tongue, muscle, epidermal white adipose tissue (WATep), heart, lung, stomach, pancreas, liver, duodenum, colon, spleen, kidneys, adrenals, testis, bladder and bone as well as blood and urine were removed, weighed and measured in a gamma counter (2480 WIZARD^2, PerkinElmer). Radioactivity concentrations were normalized to dose and weight and expressed as percent injected dose per gram (%ID/g). To determine significant differences, a two-tailed t test with […] was performed using the statistics add-on in Microsoft Excel® 2013. A value of P < 0.05 was considered as significant.

Series [2] addresses T1, MCHR1 (Rattus norvegicus, UniProt P97639). The experiment in a line: Preliminary small-animal PET/MR imaging. It is filed as in vivo. Further details: from tissue; host or cells: living rat (in vivo PET imaging). The conditions noted are these: healthy anaesthetized rat, baseline conditions, tail vein bolus. How it is done: An anaesthetized rat (with 1.5–2.5 % isoflurane) was immobilized in a multimodal animal carrier unit (MACU; medres®—medical research GmbH, Cologne, Germany) and maintained at a body temperature of 37 °C throughout the whole experiment. [^18F]FE@SNAP (47.64 ± 1.23 MBq) was injected as a bolus via the lateral tail vein, and dynamic PET imaging (Siemens Inveon preclinical μPET/SPECT/CT system) was performed over 60 min. Immediately afterwards, T1-weighted high-resolution axial, coronary and sagittal brain MRI scans were performed using a Bruker BioSpec 94/30 USR small-animal MR system (Bruker BioSpin GmbH, Karlsruhe, Germany).

In the next series the target is human MCHR1. Further details: method as in PMID 24106662. The conditions noted are these: CHO cells expressing the human MCHR1; cited from earlier work.
The next series addresses MCHR2. Further details: method as in PMID 24106662. The conditions noted are these: second MCH receptor; cited from earlier work.
Series [3] in a line: Blood metabolite analysis by radio-TLC. It is filed as in vivo, Sprague-Dawley rats. The conditions noted are these: 45 min after tracer application, baseline group, n = 3, plasma. The method, then:
For analysis of potential circulating metabolites, blood samples from the baseline group were collected into heparinized tubes and immediately stored on ice before processing. The blood was centrifuged (Hettich Rotanta/TRC; 3400×g, 4 min) to separate cellular components. Sample cleanup was performed by vortexing plasma with the equivalent amount of acetonitrile and by subsequent centrifugation (Hettich Universal 30RF; 23,000×g, 3 min) to remove precipitated proteins. The obtained supernatant was applied to radio-thin-layer chromatography (radio-TLC silica gel plates, mobile phase acetonitrile/water 70/30 v/v, application volume 2 μL on origin) and analysed via a Canberra-Packard Instant Imager.

Series [4] has as its target T1, MCHR1. Put plainly: Ex vivo brain autoradiography after IV injection into the jugular vein of awake rats. The class given is in vivo, Sprague-Dawley rats. Further details: from tissue; host or cells: rat brain (hypothalamus, ventricular system) and peripheral organs after in vivo injection. Conditions: for Ratio Hypothalamus/non-target / Ratio Ventricle/non-target: ratio of ROIs (DLU/mm^2), 45 min after injection, n = 3. How it is done:
as §1
Whole rat brains (n = 6) were cut in a cryo-microtome (Microm HM 560, Thermo Scientific) into 50-μm-thick slices and thaw-mounted onto superfrost slides (Menzel-Gläser SUPERFROST® PLUS, Thermo Scientific). Samples were placed on Phosphor Imager plates (Multisensitive Phosphor Screens Long Type MS, PPN 7001724, PerkinElmer) for an exposure period of 18 h and then analysed with a Cyclone Phosphor Imager (Cyclone Plus Storage Phosphor System, PerkinElmer). Data analysis was performed with OptiQuant® data processing software Version 5.0. Due to high-MCHR1 appearance, special emphasis was laid on the hypothalamus and the ventricular system. […] To facilitate comparison, manually defined template ROIs fitting to all slices (30 slices/brain; bregma −1.0 to −2.5 mm) were applied. […] In detail, ratios of hypothalamus/non-target and ventricle/non-target were calculated. Significant differences were calculated as described before.
Fig. 2 Scheme of the ROIs for calculation of ratios. 1 (yellow): ventricular system; 2 (green): hypothalamic area; 3 (pink): non-target region; and 4 (orange): whole brain. It is noteworthy that ROIs 1 and 2 include the target areas as well as some background areas, due to varying target size throughout the different brain levels (bregma)

[5] abbreviates: blocking with SNAP-7941 15 mg/kg 30 min prior.

T1 sequence (P97639 whole entry): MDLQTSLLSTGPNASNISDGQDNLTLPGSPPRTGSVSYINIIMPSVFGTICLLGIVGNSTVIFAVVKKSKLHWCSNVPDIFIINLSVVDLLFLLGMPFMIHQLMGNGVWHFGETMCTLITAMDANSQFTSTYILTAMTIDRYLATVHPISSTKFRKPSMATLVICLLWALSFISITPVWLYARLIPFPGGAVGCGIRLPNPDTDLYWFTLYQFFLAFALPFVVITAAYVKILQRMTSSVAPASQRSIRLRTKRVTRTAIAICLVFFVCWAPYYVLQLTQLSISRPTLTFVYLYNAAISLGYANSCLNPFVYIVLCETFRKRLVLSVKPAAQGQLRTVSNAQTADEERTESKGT

One may read the Kd as the constant that tells how readily two partners part at equilibrium. One may read the Ki as the dissociation constant of the complex between target and ligand, obtained from inhibition or displacement. For `COCC1=C(C(=O)OCC[18F])C(c2ccc(F)c(F)c2)N(C(=O)NCCCN2CCC(c3cccc(NC(C)=O)c3)CC2)C(=O)N1` (stereo not shown) [[^18F]FE@SNAP], in series [1], the “defluorination / uptake of ^18F-fluoride into the bone” value is recorded as “no defluorination”. The “tracer uptake in brain (small-animal PET)” value at MCHR1 [2] is listed as “high tracer uptake in the ventricular system”. The Kd at human MCHR1 is 2.9 nM. Moreover, the Ki on MCHR2 is > 1000 nM. The “parent compound in the blood” value in series [3] is on record as 51.50 ± 5.5%. Also, the “Ratio Hypothalamus/non-target” value at MCHR1 [4] (baseline (vehicle)) is listed as 2.14 ± 0.9; on MCHR1 [4] (setting [5]), 1.58 ± 0.5^a. The “Ratio Ventricle/non-target” value at MCHR1 [4] (baseline (vehicle)) is on record as 2.20 ± 0.4; at MCHR1 [4] (setting [5]), 1.38 ± 0.2^a. The “whole-brain uptake, blocking group versus baseline animals” value at MCHR1 [4] (blocking with 15 mg/kg SNAP-7941, n = 3 per group) is reported as “significantly higher”.
